Data from patent publication US10323000B2, “Indole derivatives and their use in neurodegenerative diseases” (priority 2014, dated 2019).
Where two headings read alike, the source gives them in different places.

Molecular target: human P2X7 receptor (Homo sapiens (Human), UniProt Q99572)
Test: Pore permeation assay (YO PRO dye uptake)
Format: cell-based
Protocol: Agonist-induced pore formation was determined by measuring cellular uptake of YO PRO fluorescence dye in HEK293 transfected with human P2X7 receptor. A HEK293 cell over expressing human P2X7 was harvested using HQTase reagent to detach the cells from T75 cm flask. The harvested cells are centrifuged @1200 rpm for 5 min at room temperature. The viability of cells was determined by Trypan blue dye and the cells are plated @10,000 cell/well in 50 ul volume in a 384W BD Poly lysine coated plate and incubated overnight at 37 C. […] The plate was centrifuged at 1000 rpm for 5 seconds and incubated at room temperature for 30 minutes. The uptake of YO PRO dye into the cells was measured using Envision Fluorescence plate reader instrument (Perkin Elmer).

[1] = HEK293 transfected with human P2X7, BzATP 10 uM, YO PRO dye uptake, read-out: hP2X7 IC50

human P2X7 receptor, sequence (Q99572 whole entry): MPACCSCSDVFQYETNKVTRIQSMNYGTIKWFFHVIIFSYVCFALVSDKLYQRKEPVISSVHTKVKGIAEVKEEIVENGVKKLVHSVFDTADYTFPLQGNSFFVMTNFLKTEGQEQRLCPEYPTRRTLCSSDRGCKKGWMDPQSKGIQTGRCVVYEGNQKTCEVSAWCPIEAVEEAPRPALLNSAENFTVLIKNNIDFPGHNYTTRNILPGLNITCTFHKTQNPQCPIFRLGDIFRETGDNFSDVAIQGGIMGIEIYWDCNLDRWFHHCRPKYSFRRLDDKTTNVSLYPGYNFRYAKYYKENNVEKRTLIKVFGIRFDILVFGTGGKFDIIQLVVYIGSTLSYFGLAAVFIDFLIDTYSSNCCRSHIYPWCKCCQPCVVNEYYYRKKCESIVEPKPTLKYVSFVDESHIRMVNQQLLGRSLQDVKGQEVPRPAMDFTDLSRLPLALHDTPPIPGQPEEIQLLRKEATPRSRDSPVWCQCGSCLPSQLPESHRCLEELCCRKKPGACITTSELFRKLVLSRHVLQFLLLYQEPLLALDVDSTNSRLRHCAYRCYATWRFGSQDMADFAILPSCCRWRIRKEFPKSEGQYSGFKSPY

Row | Molecule | IC50 [1] [nM] | IC50 [nM]
1 | 4-Chloro-1-(tetrahydro-furan-3-yl)-1H-indole-3-carboxylic acid (2-cyclopentyl-2-hydroxy-propyl)-amide [Compound 102] | > 1000 | –
2 | O=C(NCC1CCC(F)(F)CC1)c1cn(CCC(F)F)c2cccc(Cl)c12 [Compound 11, 4-Chloro-1-(3,3-difluoro-propyl)-1H-indole-3-carboxylic acid (4,4-di fluoro-cyclohexyl methyl)-amide] | – | 10 to 100
3 | COCCn1cc(C(=O)NC[C@]2(O)CCC[C@H](C)C2)c2c(Cl)cccc21 [Compound 14, 4-Chloro-1-(2-methoxy-ethyl)-1H-indole-3-carboxylic acid ((1S,3S)-1-hydroxy-3-methyl-cyclohexylmethyl)-amide] | – | 10 to 100
4 | COCCn1cc(C(=O)NC[C@@]2(O)CCC[C@@H](C)C2)c2c(Cl)cccc21 [Compound 15, 4-Chloro-1-(2-methoxy-ethyl)-1H-indole-3-carboxylic acid ((1R,3R)-1-hydroxy-3-methyl-cyclohexylmethyl)-amide] | – | 10 to 100
5 | COCCn1cc(C(=O)NCCC2(O)CCCC2)c2c(Cl)cccc21 [Compound 16, 4-Chloro-1-(2-methoxy-ethyl)-1H-indole-3-carboxylic acid [2-(1-hydroxy-cyclopentyl)-ethyl]-amide] | – | 500 to 999
6 | COCCn1cc(C(=O)NCc2cccc3c2OCCO3)c2c(Cl)cccc21 [Compound 23, 4-Chloro-1-(2-methoxy-ethyl)-1H-indole-3-carboxylic acid (2,3-dihydro-benzo[1,4]dioxin-5-ylmethyl)-amide] | > 1000 | –
7 | COCCn1cc(C(=O)NCc2ccccc2C(F)(F)F)c2c(Cl)cccc21 [Compound 24, 4-Chloro-1-(2-methoxy-ethyl)-1H-indole-3-carboxylic acid 2-trifluoromethyl-benzylamide] | – | 500 to 999
8 | COCCn1cc(C(=O)NCc2ccccc2F)c2c(Cl)cccc21 [Compound 25, 4-Chloro-1-(2-methoxy-ethyl)-1H-indole-3-carboxylic acid 2-fluoro-benzylamide] | – | 500 to 999
9 | COCCn1cc(C(=O)NCc2ccc(C(F)(F)F)cc2)c2c(Cl)cccc21 [Compound 26, 4-Chloro-1-(2-methoxy-ethyl)-1H-indole-3-carboxylic acid 4-trifluoro methyl-benzylamide] | > 1000 | –
10 | COCCn1cc(C(=O)NCc2ccc3c(c2)OCO3)c2c(Cl)cccc21 [Compound 27, 4-Chloro-1-(2-methoxy-ethyl)-1H-indole-3-carboxylic acid (benzo [1,3]dioxol-5-ylmethyl)-amide] | > 1000 | –
11 | COCCn1cc(C(=O)NCc2ccco2)c2c(Cl)cccc21 [Compound 28, 4-Chloro-1-(2-methoxy-ethyl)-1H-indole-3-carboxylic acid (furan-2-ylmethyl)-amide] | > 1000 | –
12 | COCCn1cc(C(=O)NC2COc3ccccc3C2)c2c(Cl)cccc21 (stereo not shown) [Compound 29, 4-Chloro-1-(2-methoxy-ethyl)-1H-indole-3-carboxylic acid chroman-3-ylamide] | – | 101 to 500
13 | COCCn1cc(C(=O)NCc2nc3ccccc3s2)c2c(Cl)cccc21 [Compound 31, N-(benzo[d]thiazol-2-ylmethyl)-4-chloro-1-(2-methoxyethyl)-1H-indole-3-carboxamide] | > 1000 | –
14 | O=C(NC(C1CCCC1)C(F)(F)F)c1cn(C2COC2)c2cccc(Cl)c12 (stereo not shown) [Compound 42, 4-chloro-N-(1-cyclopentyl-2,2,2-trifluoroethyl)-1-(oxetan-3-yl)-1H-indole-3-carboxamide] | > 1000 | –
15 | O=C(NC(C1CCCCC1)C(F)(F)F)c1cn(C2COC2)c2cccc(Cl)c12 (stereo not shown) [Compound 43, 4-chloro-N-(1-cyclohexyl-2,2,2-trifluoroethyl)-1-(oxetan-3-yl)-1H-indole-3-carboxamide] | > 1000 | –
16 | CC1CC(O)(CNC(=O)c2cn(C3COC3)c3cccc(Cl)c23)CCC1(F)F (stereo not shown) [Compound 46, 4-chloro-N-((4,4-difluoro-1-hydroxy-3-methylcyclohexyl)methyl)-1-(oxetan-3-yl)-1H-indole-3-carboxamide] | – | 101 to 500
